# Patent US20210315893A1 (Galapagos NV, priority 2017, published 2021)
# Key:
# [1] = target: T1, human GPCR sphingosine 1-phosphate receptor 2 (Homo sapiens, UniProt O95136); assay: S1PR2 antagonist Ca2+ flux assay; type: cell-based; conditions: antagonist mode, CHO-S1PR2 cells, S1P at EC80, Ca2+ fluorescence; read-out: S1P2 EC50 (nM), S1P2 antagonist EC50
# T1 construct: host or cells: CHO
# Outline: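 CHO cells stably expressing human S1PR2, serum-starved 1 h, Fluo8-loaded; compound-evoked Ca2+ fluorescence read 3 min (agonist mode), then after 15 min S1P at EC80 added and read 3 min (antagonist mode). Max/baseline fluorescence ratios normalised to vehicle and S1P EC100 or EC50 controls; EC50 derived.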
# [2] = tested on: HFL-1 cells; assay: IL8 assay in the presence of Human Serum Albumin; conditions: HFL1, read-out: HSA IL8 EC50
# Method: To evaluate the influence of plasma protein binding of S1P as well as compound, the S1P induced IL-8 levelswereevaluatedin presence of Human Serum Albumin (HSA, equivalent to 40% human serum).
# Human Fetal Lung cells (HFL-1) are seeded in 96 well plates in growth medium (F12K+10% heat inactivated FBS+1% Pen/strep). […] On day three, compounds are added (10 point serial dilution, 30 μM highest concentration, 1/3 dilution, 0.3% DMSO final) and plates are incubated for 1 h at 37° C., 5% CO2. Subsequently S1P at 5 μM final concentration is added and plates are incubated for 16 to 24 h at 37° C., 5% COafter which the supernatant was collected. IL-8 levels in the supernatant are determined with the IL-8 ELISA of R&D systems.
# [3] = target: T2, S1PR2 (Homo sapiens, UniProt O95136); assay: S1PR2 binding assay (competition with radioactively labeled S1P, SpA); conditions: membranes from stable cell line over expressing S1PR2, SpA beads; read-out: S1P2 EC50 (nM), S1PR2 binding EC50
# T2 construct: expressed in transfected cells
# Outline: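 Competition with [3H]S1P for membranes from a stable S1PR2-overexpressing cell line, 20 μg/well, captured on PVT-WGA SPA beads, in 20 mM Tris pH 7.5, 10 mM MgCl2, 100 mM NaCl, 0.4% fatty-acid-free BSA, 1 mM Na3VO4. 2 h at room temperature, then centrifugation and scintillation counting.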
# [4] = tested on: HFL-1 cells; assay: IL-8 production assay (S1P induced IL-8); type: cell-based; conditions: Homo sapiens, HFL1; S1P (1 μM) induced IL-8 in HFL-1 cells, starvation medium without HSA; read-out: IL8 EC50
# Method: This assay is designed to test inhibitory activity of compounds on S1P induced IL-8 on HFL-1 cells, ahuman fetal lung fibroblast cell line.
# Human Fetal Lung cells (HFL-1) are seeded in 96 well plates in growth medium (F12K+10% heat inactivated FBS+l1% Pen/strep). After overnight incubation at 37° C., […] cells are refreshed with starvation medium without HSA (F12K+1% FBS+1% Pen/strep). On day three, compounds are added (10 point serial dilution, 30 μM highest concentration, 1/3 dilution, 0.3% DMSO final) and plates are incubated for one h at 37° C., 5% CO2. Subsequently S1P at 1 μM final concentration is added and plates are incubated for 16 to24 h at 37° C., […] after which the supermatant was collected. IL-8 levels in the supernatant are determined with the IL-8 ELISA of R&D systems.
# T2 sequence (O95136 whole entry): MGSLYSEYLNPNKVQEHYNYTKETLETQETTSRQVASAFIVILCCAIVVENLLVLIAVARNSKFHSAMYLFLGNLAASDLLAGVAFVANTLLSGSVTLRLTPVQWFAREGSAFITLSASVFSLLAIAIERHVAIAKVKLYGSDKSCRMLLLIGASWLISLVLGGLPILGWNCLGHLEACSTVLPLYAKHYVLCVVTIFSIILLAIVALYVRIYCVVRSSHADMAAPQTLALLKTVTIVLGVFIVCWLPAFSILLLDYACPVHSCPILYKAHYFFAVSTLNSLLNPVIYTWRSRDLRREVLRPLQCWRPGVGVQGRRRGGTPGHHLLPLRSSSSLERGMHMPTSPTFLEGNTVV
# T1 sequence (O95136 whole entry): as above
Structure (SMILES),EC50 [1] [nM],EC50 [2] [µM],EC50 [3] [nM],EC50 [4] [µM]
"N#Cc1cc2nc(Cc3nn(CC(=O)N4CCC(F)(F)CC4)c(=O)c4c3CCCC4)[nH]c2cc1OCC(F)F [Compound 185, 6-(2,2-difluoroethoxy)-2-[[3-[2-(4,4-difluoro-1-piperidyl)-2-oxo-ethyl]-4-oxo-5,6,7,8-tetrahydrophthalazin-1-yl]methyl]-1H-benzimidazole-5-carbonitrile]",30.4,0.301,166,0.0937
"CC(C(=O)N1CCOCC1)n1nc(Cc2nc3cc(OCC4CC4)c(Cl)cc3[nH]2)c2ccccc2c1=O (stereo not drawn) [Compound 155, 4-(6-Chloro-5-cyclopropylmethoxy-1H-benzoimidazol-2-ylmethyl)-2-(1-methyl-2-morpholin-4-yl-2-oxo-ethyl)-2H-phthalazin-1-one]",14.7,0.23,229,0.0495
"CC(C)(C)CNC(=O)Cn1nc(Cc2nc3cc(OCC(F)F)c(C#N)cc3[nH]2)c2ccccc2c1=O [Compound 202, 2-[4-[[6-cyano-5-(2,2-difluoroethoxy)-1H-benzimidazol-2-yl]methyl)-1-oxo-phthalazin-2-yl]-N-(2,2-dimethylpropyl)acetamide]",6.86,0.479,48,0.0134
"N#Cc1cc2nc(Cc3nn(CC(=O)NC[C@H](O)C(F)(F)F)c(=O)c4ccccc34)[nH]c2cc1OCC(F)F [Compound 191, 2-[4-[[5-cyano-6-(2,2-difluoroethoxy)-1H-benzimidazol-2-yl]methyl]-1-oxo-phthalazin-2-yl]-N-[(2S)-3,3,3-trifluoro-2-hydroxypropyl]acetamide]",11.8,0.0999,66.4,0.0367
"O=c1c2ccccc2c(Cc2nc3cc(Cl)c(OC(F)(F)F)cc3[nH]2)nn1CC1CC1 [Compound 27, 4-[[6-chloro-5-(trifluoromethoxy)-1H-benzimidazol-2-yl]methyl]-2-(cyclopropylmethyl)phthalazin-1-one]",868,10,3900,1.11
"N#Cc1cc2[nH]c(Cc3nn(C(CN4CCC4)C(=O)O)c(=O)c4ccccc34)nc2cc1OCC(F)F (stereo not drawn) [Compound 75, 3-(azetidin-1-yl)-2-[4-[[6-cyano-5-(2,2-difluoroethoxy)-1H-benzimidazol-2-yl]methyl]-1-oxo-phthalazin-2-yl]propanoic acid]",3850,1.3,2920,0.938

# Now from value to compound:
EC50 [1] [nM],EC50 [2] [µM],EC50 [3] [nM],EC50 [4] [µM],Structure (SMILES)
16.8,0.562,210,0.0288,"CC1(C)CCN(C(=O)Cn2nc(Cc3nc4cc(OCC(F)F)c(C#N)cc4[nH]3)c3ccccc3c2=O)C1 [Compound 233, 6-(2,2-difluoroethoxy)-2-[[3-[2-(3,3-dimethylpyrrolidin-1-yl)-2-oxo-ethyl]-4-oxo-phthalazin-1-yl]methyl]-3H-benzimidazole-5-carbonitrile]"
≥ 19800,3.03,21900,29.9,"CN(C)[C@H]1CCN(C(=O)Cn2nc(Cn3cc4cc(OCC(F)F)c(C#N)cc4n3)c3ccccc3c2=O)C1 [Compound 207, 5-(2,2-difluoroethoxy)-2-[[3-[2-[(3S)-3-(dimethylamino)pyrrolidin-1-yl]-2-oxo-ethyl]-4-oxo-phthalazin-1-yl]methyl]indazole-6-carbonitrile]"
615,10,4950,1.45,"CC(=O)N1CCCC1Cn1nc(Cc2nc3cc(Cl)c(OC(F)(F)F)cc3[nH]2)c2ccccc2c1=O (stereo not drawn) [compound 14, 2-[(1-acetylpyrrolidin-2-yl)-methyl]-4-[[5-chloro-6-(tri-fluoromethoxy)-1H-benzimidazol-2-yl]methyl]-phthalazin-1-one]"
